In patent US20230157319A1, “SUPPLEMENTS AND COMPOSITIONS CONTAINING AMINO ACIDS AND IGF-1 AND METHODS OF USE” (PURETEIN BIOSCIENCE LLC, priority 2020, published 2023):

Tested on: porcine satellite cells
Test: myotube size of differentiated porcine satellite cells, 72 hour treatment
Format: cell-based
Settings: for myotube size compared to the control treatment: each alone in DM: 5 ng/mL IGF-1, 4 mM L-glutamine, 10 mM L-lysine, 10 μM L-methionine, 72 hour, FIG. 1; for myotube size compared to the control treatment / myotube growth on addition to the combination: 1 mM L-leucine, 1 mM L-arginine; for useful inclusion (minimum amount required to produce the maximal growth response): titrated within the combination with 5 ng/mL active IGF-1, FIGS. 3-5; for myotube growth on addition to the combination: titrated 0.5-3 mM into 5 ng/mL IGF-1, 3 mM L-glutamine, FIGS. 6 and 7

Row | Compound | myotube size compared to the control treatment | useful inclusion (minimum amount required to produce the maximal growth response) [mM] | myotube growth on addition to the combination
1 | N=C(N)NCCC[C@H](N)C(=O)O [L-arginine] | more profound growth response of myotubes | 1 | –
2 | NC(=O)CC[C@H](N)C(=O)O [L-glutamine] | more profound growth response of myotubes | 3 | –
3 | CC(C)C[C@H](N)C(=O)O [L-leucine] | more profound growth response of myotubes | 1 | –
4 | NCCCC[C@H](N)C(=O)O [L-lysine] | increase the myotube size compared to the control treatment | – | did not provide any increase in myotube growth
5 | CSCC[C@H](N)C(=O)O [L-methionine] | increase the myotube size compared to the control treatment | – | did not provide any increase in myotube growth
6 | insulin-like growth factor 1 [IGF-1] | increase the myotube size compared to the control treatment | – | –
